{"source": "patent US6900198B2", "about": "“Synthetic catalytic free radical scavengers useful as antioxidants for prevention and therapy of disease” (Eukarion, Inc., priority 1995, dated 2005)", "key": {"[1]": {"test_system": "endotoxin-induced ALI in pigs", "assay": "Acute lung injury in endotoxemic pigs", "type": "in vivo", "conditions": "treatment begun prior to LPS infusion", "description": "All pigs were pre-treated at T=−18 h with Escherichia coli 0111:B4 LPS (20 μg/kg). Pigs in the RL group (n=4) received no further treatment. […] Lung wet-to-dry weight ratio was determined post-mortem. Lung lipid peroxidation was estimated fluorometrically by measuring thiobarbituric acid reactive products in the lipid fraction of lung parenchymal tissue harvested at T=300 min."}, "SJL female mice": {"test_system": "SJL female mice", "assay": "Experimental Autoimmune Encephalitis (EAE)", "type": "in vivo", "from_the_text": "EAE is an animal model of multiple sclerosis.\nMice in both groups were immunized with an encephalitogenic PLP peptide in complete Freund's adjuvant subcutaneously, followed by Petrussis Toxin (IV). Petrussis toxin was repeated on day 3 post immunization.\nAnimals were scored as follows:\nStage I: Limp tail syndrome\nStage II: Hind leg paralysis\nStage III: Hind leg paralysis-Dragging movement\nStage IV: Paralytic immobility, weight loss"}, "[2]": {"conditions": "cited from earlier work"}, "Hippocampal slices": {"test_system": "Hippocampal slices", "assay": "Lactic acid (acidosis)-induced lipid peroxidation in hippocampal slices", "type": "cell-based, Sprague-Dawley rats", "conditions": "50 μM; 30 mM lactate, pH 5.0, 100 minutes", "description": "Hippocampal slices (400 μm thick) were obtained from Sprague-Dawley rats (150-200 g) and collected in preoxygenated (95% O2/5% CO2) Krebs-Ringer phosphate medium (pH 7.4) containing NaCl 120 mM, KCl 5 mM, CaCl2 1.3 mM, MgCl2 1.2 mM, NaPhosphate 16 mM (pH 7.4) and glucose 10 mM. After 15 minutes preincubation in a water bath at 35° C. under agitation, the buffer was replaced with the same buffer (control) or a modified buffer (lactate buffer) containing NaCl 90 mM, KCl 5 mM, CaCl2 1.3 mM, MgCl2 1.2 mM, NaPhosphate 16 mM and lactic acid 30 mM (pH 5.0). […] After 100 minutes, slices were collected and homogenized in 0.9 ml of TCA 5%, whereas 0.35 ml of TCA 5% was added to 0.5 ml of the incubation medium. Lipid peroxidation was measured by adding 0.25 ml of a thiobarbituric acid reagent (TBAR) to 0.85 ml of the TCA extracts and incubating the mixture for 60 minutes at 85-93° C. Lipids were then extracted with 2×0.5 ml 1-butanol by vortexing for 10 seconds, then centrifuging at 2,000 rpm for 10 minutes. The absorbance of peroxidized lipids in the alcohol phase was measured in a spectrophotometer at 532 nm. Data were expressed as nmoles of malondialdehyde (MDA) using authentic MDA to establish a standard curve. Proteins were measured from an aliquot of the TCA extracts using the method of Bradford and the final results were calculated as nmoles MDA formed/mg protein. […]"}, "Rat brain slices": {"test_system": "Rat brain slices", "assay": "Rat brain slice ischemia EPSP system", "type": "cell-based", "conditions": "50 μM; untreated slices recovered only about 40%", "description": "A widely used assay to determine the therapeutic potential of molecules in brain ischemia (stroke) consists of evaluating their ability to prevent irreversible damage induced by an anoxic episode in brain slices maintained under physiological conditions. Rat brain slices were maintained at 35° C. in an interface chamber in an artificial cerebrospinal fluid containing: 124 mM NaCl, 3 mM KCl, 1.25 mM KH2PO4, 3 mM CaCl, 1 mM MgCl2, 26 mM NaHCO3, 10 mM D-glucose, and 2 mM L-ascorbate, continuously gassed with a mixture of O2:CO2 (95:5). The atmosphere of the chamber was also continuously gased with the mixture of O2:CO2 (95:5), except during the anoxic episode when it was replaced by N2. Axons were electrically stimulated and the evoked excitatory post-synaptic potentials (EPSPs) were recorded using microelectrodes.\nThe extent of permanent damage can be quantified by measuring both the amplitude (in mV) and the initial slope (in mV/msec) of the EPSP.\nAfter 5 minutes of baseline recording, O2 was replaced by N2 for an average of 5 minutes. O2 was then reintroduced and recording was continued for another 50 minutes. […] In contrast, recovery in untreated brain slices was only about 40% of pre-ischemia levels.\nAs an additional assessment of efficacy, the percentage of viable slices following repeated ischemic episodes was evaluated. […]"}, "[3]": {"test_system": "dopaminergic neurons in mouse striatum", "assay": "6-OHDA in mice, 3H-mazindol binding in striatal homogenates", "type": "in vivo", "conditions": "C7 4×66 mg/kg; 6-OHDA 50 μg i.c.v.", "description": "6-OHDA in mice. Adult male CFW mice were anesthetized with ketamine and rumpun, and immobilized in a stereotaxic device. 6-OHDA, as the hydrobromide salt, was dissolved in normal saline with 1% ascorbate, and 50 μg was administered in lateral ventricle by means of a 10 μl Hamilton syringe. […] Animals were sacrificed 7 days later, and neuronal pathology was assessed by measuring ^3H-mazindol binding in striatal homogenates."}, "[4]": {"assay": "Peroxidase activity toward t-BHP, ABTS oxidation", "type": "biochemical", "conditions": "1 mM t-BHP versus same concentration of H2O2", "description": "Peroxidase activity was assayed by monitoring the hydrogen peroxide-dependent oxidation of 2,2′-azino-bis(3-ethylbenzthiazoline-6) sulfonic acid (ABTS) spectrophotometrically. Standard assay mixtures consisted of 50 mM sodium phosphate, pH 8.1, 0.9% sodium chloride, 0.5 mM ABTS, and H2O2 and salen manganese complex as indicated. Where indicated, 50 mM sodium phosphate buffers of pH 6.0 or pH 7.1 were substituted. Assays were conducted at 27±0.2° C. ABTS oxidation was monitored at 740 or 500 nm to eliminate interference by the salen manganese complexes, many of which absorb in the vicinity of the λmax of oxidized ABTS, and to avoid absorbance values that exceeded the linear range of the spectrophotometer. The amount of oxidized ABTS was estimated using an Δε740 of 20,300 M^−1cm^−1 or an Δε500 of 3400 M^−1cm^−1 calculated based upon the published molar extinction coefficient oat 405 nm (36,800).\n(In comparison, horseradish peroxidase utilized t-BHP with an ABTS oxidation rate that was about 5.4% of the rate with H2O2)."}}, "data": [{"smiles": "[Cl][Mn]1[O]c2ccccc2C=NCCN=Cc2ccccc2[O]1", "note": "[Compound C7]", "values": [{"measurement": "effect on manifestations of LPS-induced ALI", "setting": "[1]", "result": "prevents many of the manifestations of LPS-induced ALI"}, {"measurement": "mice that developed symptomatic EAE", "setting": "SJL female mice; fifth week, three weeks after treatment was stopped, group of 10 mice", "result": "six"}, {"measurement": "mice that developed symptomatic EAE", "setting": "SJL female mice; third week following immunization, 1 mg/mouse daily IP, control 8 of 20", "result": "one of 10"}, {"measurement": "SOD activity previously found", "setting": "[2]", "result": "about 769 units/mM"}, {"measurement": "lactate-induced increase in lipid peroxidation (malondialdehyde)", "setting": "Hippocampal slices", "result": "totally abolished the increase in lipid peroxidation"}, {"measurement": "recovery of EPSP amplitude and slopes after ischemia/reoxygenation", "setting": "Rat brain slices", "result": "recovered to pre-ischemia levels"}, {"measurement": "effect on 6-OHDA-induced decrease in mazindol binding, contralateral striatum", "setting": "[3]", "result": "complete protection"}, {"measurement": "effect on 6-OHDA-induced decrease in mazindol binding, ipsilateral striatum", "setting": "[3]", "result": "significant reduction"}, {"measurement": "ABTS oxidation rate with t-BHP as percent of the rate with H2O2", "setting": "[4]", "result": "about 0.5%"}]}]}
